Test results taken from ChEMBL document CHEMBL3886420, “Substituted pyrimidine compounds and their use as SYK inhibitors” (2015).

Target: Tyrosine-protein kinase SYK (Homo sapiens, UniProt P43405)
Assay: Inhibition Assay: Compounds of the invention were initially diluted to 10 mM in 100% DMSO (CALBIOCHEM) for storage and made into kinase buffer solution to create a compound concentration ranging from 1 uM and 10 uM. Serial dilutions of compounds of the invention were dispensed into a 96-well plate (GREINER BIOSCIENCES) at 6 uL each. Purified full-length human SYK (CARNA BIOSCIENCES) were diluted …

IC50: 45.6 nM
Structure (SMILES): CCOC(=O)n1cc(C(C)=O)c2cc(Nc3nccc(-n4cc(CN5C[C@H](O)CO5)c(C)n4)n3)ccc21
